Source: ChEMBL document CHEMBL1156654, “Antineoplastic agents. 552. Oxidation of combretastatin A-1: trapping the o-quinone intermediate considered the metabolic product of the corresponding phosphate prodrug” (2008)
≈ marks a conversion by molar mass, not a printed value.

What was measured:
Type in all cases: functional
[1] = Antitumor activity against mouse MHEC5T cells xenografted in SCID mouse assessed as reduction in tumor blood flow at 100 mg/kg after 24 hrs; set-up: scale not given: the % may be the effect or the level left
[2] = Antitumor activity against mouse MHEC5T cells xenografted in SCID mouse assessed as reduction in tumor blood flow at 100 mg/kg after 72 hrs; set-up: scale not given: the % may be the effect or the level left
[3] = Antitumor activity against mouse MHEC5T cells xenografted in SCID mouse assessed as reduction in tumor blood flow at 100 mg/kg after 1 hrs; set-up: scale not given: the % may be the effect or the level left
P388 = test: Growth inhibition of mouse P388 cells; details: read-out: ED50 (the source's name)

Row | EC50 (P388) [µg/mL] | SMILES | Activity [1] [%] | Activity [2] [%] | Activity [3] [%]
1 | – | COc1cc(/C=C\c2ccc(OC)c(OP(=O)([O-])[O-])c2OP(=O)([O-])[O-])cc(OC)c1OC.[Na+].[Na+].[Na+].[Na+] | 90 | 27 | 50
2 | 0.2 (≈ 0.497 µM) | COc1cc(/C=C\c2ccc(OC)c3nc4ccccc4nc23)cc(OC)c1OC | – | – | –
3 | 0.2 (≈ 0.432 µM) | COc1cc2nc3c(/C=C\c4cc(OC)c(OC)c(OC)c4)ccc(OC)c3nc2cc1OC | – | – | –
